For the test, the target named is T1, human PPARγ1 (Homo sapiens, UniProt P37231).
T1 construct: made in house; host or cells: COS-1 cells transiently transfected with pMCMVneo-hPPARγ; crude supernatant of the lysate, not purified
T1 sequence (P37231 1-477 isoform P37231-2): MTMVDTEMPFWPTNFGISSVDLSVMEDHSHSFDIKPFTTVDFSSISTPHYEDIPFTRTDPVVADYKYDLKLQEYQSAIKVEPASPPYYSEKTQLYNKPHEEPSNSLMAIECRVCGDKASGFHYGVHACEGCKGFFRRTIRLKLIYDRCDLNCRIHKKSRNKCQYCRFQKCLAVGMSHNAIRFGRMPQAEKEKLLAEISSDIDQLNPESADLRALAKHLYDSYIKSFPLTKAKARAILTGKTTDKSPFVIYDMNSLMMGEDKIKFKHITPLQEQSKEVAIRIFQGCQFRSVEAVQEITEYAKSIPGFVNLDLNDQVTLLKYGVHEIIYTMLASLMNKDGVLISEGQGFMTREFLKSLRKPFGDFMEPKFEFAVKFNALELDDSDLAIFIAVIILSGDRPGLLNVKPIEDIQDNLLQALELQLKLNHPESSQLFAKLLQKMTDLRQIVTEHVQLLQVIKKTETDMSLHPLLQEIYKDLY
Put plainly: Measurement of human PPARγ1 binding activity ([3H]-compound A displacement). The settings on record: cell extract with 1.5 μg/ml full length hPPARγ1, 20 nM [3H]-compound A, 4° C., 16 hrs. Here is the method: A cell extract containing 1.5 μg/ml of full length hPPARγ1 prepared in Reference Example 7a, 20 nM [^3H]-compound A (16 Ci/mmol)(Amersham Pharmacia Biotech) and a test compound were reacted in TEGM buffer at 4° C. for 16 hrs. To the reaction mixture was added activated carbon (Sigma) coated with 140 μl of dextran (Amersham Pharmacia Biotech) and gelatin (Sigma), and the mixture was left standing at 4° C. for 10 min and centrifuged at 910×g for 10 min. After centrifugation, the radioactivity of 30 μl of supernatant was measured with Topcount (Packard). In addition, a test similar to the above was conducted for the non-use of the aforementioned test compound and for the use of 100 μM of compound A instead of the aforementioned test compound, and the radioactivity was determined.
The human PPARγ1 binding activity of the test compound was evaluated using percentages wherein the measured value of the radioactivity when 20 nM [^3H]-compound A alone was added was 100%, and the measured value of the radioactivity when 20 nM [^3H]-compound A and 100 μM of compound A were simultaneously added was 0%. Moreover, the IC50 value of the test compound was calculated based on the analysis of the compound concentration and the percentage using PRISM3.0 (Graph Pad, Inc.).
COS-1 cells were seeded in a 150 cm^2 tissue culture flask (Corning Inc.) at 5×10^6 cells, and cultured under 37° C. 5% CO2 conditions for 24 hrs. Transfection was performed using lipofectamine (GIBCO BRL). To be specific, 125 μl of lipofectamine, 100 μl of PLUS Reagent and 15 μg of hPPARγ expression plasmid (plasmid pMCMVneo-hPPARγ obtained in Reference Example 6a) were mixed with opti-MEM (GIBCO BRL) to give a transfection mixture. The transfection mixture (25 ml) was added to COS-1 cells and the cells were cultured under 37° C. 5% CO2 conditions for 3 hrs. Then 25 ml of DMEM medium (Nikken Biomedical Laboratory) containing 10% FCS treated with activated carbon (Sigma) was added to the cells and the cells were cultured under 37° C. 5% CO2 conditions. After 24 hrs., the medium was substituted with 50 ml of DMEM medium (Nikken Biomedical Laboratory) containing 5% FCS treated with activated carbon, and the cells were cultured under 37° C., 5% CO2 conditions. After 48 hrs, the transfected cells were recovered and washed with TEG buffer (10 mM Tris-HCl (pH 7.2), 50 mM EDTA, 10% glycerol). The cells were suspended in 1 ml TEGM buffer (10 mM Tris-HCl (pH 7.2), 1 mM EDTA, 10% glycerol, 7 μl/100 ml β-mercaptoethanol, 10 mM Na molybdate, 1 mM dithiothreitol, 2 tablets/100 ml Protease inhibitor Cocktail tablets (Boehringer Mannheim)) and, for cell lysis, frozen with liquid nitrogen and thawed on ice. To remove the debris of the cells, the extract was centrifuged at 228,000×g, 4° C. for 20 min. and the supernatant was preserved at −80° C. until use.
Turning to `CCOC(=O)/C=C/c1cn(-c2ccccc2)nc1OCc1ccc(OCc2nc(-c3ccccc3)oc2C)c(OC)c1` [Example 284, ethyl (E)-3-(3-{[3-methoxy-4-(5-methyl-2-phenyl-1,3-oxazol-4-ylmethoxy)benzyl]oxy}-1-phenyl-1H-pyrazol-4-yl)-2-propenoate], the half-maximal inhibitory concentration (IC50) (in general, the concentration needed to halve the response being measured) was 75 nM.

In turn, `CCc1nc(/C=C/c2cn(-c3ccccc3)nc2OCc2ccc(OCc3nc(-c4cccc(C(=O)O)c4)oc3C)c(OC)c2)co1` [Example 307] displayed an IC50 of 7.4 nM.

As for `CCOP(=O)(/C=C/c1cn(-c2ccccc2)nc1OCc1ccc(OCc2nc(/C=C/C(=O)O)oc2C)c(OC)c1)OCC` [Example 315, (2E)-3-[4-({4-[({4-[(E)-2-(diethoxyphosphoryl)ethenyl]-1-phenyl-1H-pyrazol-3-yl}oxy)methyl]-2-methoxyphenoxy}methyl)-5-methyl-1,3-oxazol-2-yl]-2-propenoic acid], the concentration for half-maximal inhibition (IC50) turned out to be 500 nM.

For the molecule `CCOP(=O)(/C=C/c1cn(-c2ccccc2)nc1OCc1ccc(OCc2nc(-c3cccc(-c4nnn[nH]4)c3)oc2C)c(OC)c1)OCC` [Example 336, {(E)-2-(3-{[3-methoxy-4-({5-methyl-2-[3-(1H-tetrazol-5-yl)phenyl]-1,3-oxazol-4-yl}methoxy)benzyl]oxy}-1-phenyl-1H-pyrazol-4-yl)ethenyl}phosphonate diethyl], the IC50 stood at 7.7 nM. The value for `CCc1nc(/C=C/c2cn(-c3ccccc3)nc2OCc2ccc(OCc3nc(-c4ccc(CC(=O)O)cc4)oc3C)c(OC)c2)cs1` [Example 337, {4-[4-({4-[({4-[(E)-2-(2-ethyl-1,3-thiazol-4-yl)ethenyl]-1-phenyl-1H-pyrazol-3-yl}oxy)methyl]-2-methoxyphenoxy}methyl)-5-methyl-1,3-oxazol-2-yl]phenyl}acetic acid] was 66 nM. Turning to `CCn1cnc(/C=C/c2cn(-c3ccccc3)nc2OCc2ccc(OCc3nc(-c4ccc(CC(=O)O)cc4)oc3C)c(OC)c2)c1` [Example 344, (4-{4-[(4-[({4-[(E)-2-(1-ethyl-1H-imidazol-4-yl)ethenyl]-1-phenyl-1H-pyrazol-3-yl}oxy)methyl]-2-methoxyphenoxy)methyl]-5-methyl-1,3-oxazol-2-yl}phenyl)acetic acid], the IC50 turned out to be 46 nM. For `COc1cc(COc2nn(-c3ccccc3)cc2/C=C/c2csc(C)n2)ccc1OCc1nc(-c2ccc(CC(=O)O)cc2)oc1C` [Example 357, {4-[4-({2-methoxy-4-[({4-[(E)-2-(2-methyl-1,3-thiazol-4-yl)ethenyl]-1-phenyl-1H-pyrazol-3-yl}oxy)methyl]phenoxy}methyl)-5-methyl-1,3-oxazol-2-yl]phenyl}acetic acid] the value was 150 nM; for `COc1cc(COc2nn(-c3ccccc3)cc2/C=C/c2csc(C(C)C)n2)ccc1OCc1nc(-c2ccc(CC(=O)O)cc2)oc1C` [Example 361, {4-[4-({4-[({4-[(E)-2-(2-isopropyl-1,3-thiazol-4-yl)ethenyl]-1-phenyl-1H-pyrazol-3-yl}oxy)methyl]-2-methoxyphenoxy}methyl)-5-methyl-1,3-oxazol-2-yl]phenyl}acetic acid], 38 nM; for `CCc1nc(/C=C/c2cn(-c3ccccc3)nc2OCc2ccc(OCc3nc(-c4ccc(CC(=O)O)cc4)oc3C)c(OC)c2)co1` [Example 369, {4-[4-({4-[({4-[(E)-2-(2-ethyl-1,3-oxazol-4-yl)ethenyl]-1-phenyl-1H-pyrazol-3-yl}oxy)methyl]-2-methoxyphenoxy}methyl)-5-methyl-1,3-oxazol-2-yl]phenyl}acetic acid], 83 nM. `COc1cc(COc2nn(-c3ccccc3)cc2/C=C/c2coc(C(C)C)n2)ccc1OCc1nc(-c2ccc(CC(=O)O)cc2)oc1C` [Example 370, {4-[4-({4-[({4-[(E)-2-(2-isopropyl-1,3-oxazol-4-yl)ethenyl]-1-phenyl-1H-pyrazol-3-yl}oxy)methyl]-2-methoxyphenoxy}methyl)-5-methyl-1,3-oxazol-2-yl]phenyl}acetic acid] gave an IC50 of 32 nM.

For the origin of these results see patent US7368578B2, “Five-membered heterocyclic compounds” (Takeda Pharmaceutical Company Limited, priority 2002, dated 2008).
